One block for each compound: values may come before it. Peptide text beside a SMILES is read from it.
Legend:
[1] = Atomic Force Microscopy (AFM) morphological study of peptide nano structures; assay type: physicochemical; details: 100 μM peptide solution on mica, air-dried, tapping mode
Method: Atomic Force Microscopy (AFM) images of ST14 and T14 peptides were investigated to visualize their nano structures. […] Each sample was left on the mica for about 30 seconds (s) and then rinsed with aliquots of 100 μl of Milli-Q (ultrapure) water to remove unattached peptides. The sample on the mica surface was then air-dried for AFM observation. AFM was performed with Asylum-1 MFP-3D AFM System (Asylum Research, Santa Barbara, Calif.) using a tapping mode. The images utilized an Olympus Si tip (AC240FS). The cantilever's free resonance frequency was 70 kHz.

[2] = Rheological properties at various concentrations (stress sweep, rheometer); assay type: physicochemical; details: 37° C.; for Loss Modulus (G′) / Storage Modulus (G′): at 1 Pa of oscillation stress; for Loss Modulus (G′) / Storage Modulus (G′) / Max. Viscosity (max η′) / Yield Stress: 10 rad/s; for Max. Viscosity (max η′) / Yield Stress: stress sweep
Method: The rheological properties of the ST14 were evaluated at various concentrations using a rheometer (AR500, TA Instruments) with 40 mm plates. Peptide solution (700 μL) was placed on the rheometer plate and excess solution was gently removed by Kimwipes; measurements were performed after 2 minutes of relaxation time at 37° C. The storage modulus, loss modulus, and viscosity (η′) were measured at 37° C. with the plates placed at a measuring geometry gap of 300 μm, and stress sweep tests were performed at 0.1 Pa˜1000 Pa of oscillation stress with angular frequency at 10 rad/s.

[3] = pH of peptide solutions in deionized water; assay type: physicochemical
Method: The pH of the peptides in deionized water to provide a peptide solution were measured at various concentrations. […] ST14 and T14 were tested. The recorded pH values ranged from about 1.9 to about 2.5.

[4] = tested on: C57 BL/6 Mouse Mesenchymal Stem Cells (mMSCs); assay: Cell viability (cytotoxicity) assay in hydrogel drop cultures; assay type: cell-based; details: 5 million cells/ml, 10% sucrose, peptide concentration over 0.75% (tested 0.50% to 1.5%)
Method: A cell viability (cytotoxicity) assay was performed to measure the ability of ST14 o support the viability of C57 BL/6 Mouse Mesenchymal Stem Cells (mMSCs)—a frequently-used cell line in hydrogel tissue culture systems. The hydrogel was prepared at a concentration of 2.5% and then diluted to concentrations of 1.5%, 1.25%, 1.0%, 0.75%, and 0.50% with sucrose, so that the final concentration of sucrose was 10%. Cells were washed and re-suspended in 10% sucrose to a final concentration of 5 million cells/ml. Cells were centrifuged and the supernatant was removed. The cells were re-suspended in each of the concentrations of hydrogels in 10% sucrose. The protocol was then followed for plating drop cultures and subsequent isolation as described in the PuraMatrix® Guidelines for Use (BD/Corning website).

[5] = Autoclave stability/sterilization, mass spectrometry before and after autoclave; assay type: physicochemical; details: 121° C. for 25 min, high pressure saturated steam; N-terminus and C-terminus not protected
Description: Sterilization is a very important step in the manufacturing process for all biomaterials, including the self-assembling peptide solutions.

[6] = Dissolution in deionized water and visual appearance of peptide solution; assay type: physicochemical
Method: ST14 and T14 were tested for dissolution in deionized water and appearance in solution at various concentrations.

[7] = Congo Red assay of gel formation in PBS buffer (pH 7.4); assay type: physicochemical
Method: A Congo Red assay was performed to determine gel formation of peptide solutions in a PBS buffer solution (pH 7.4). 100 μl of each gel at varying concentrations were plated on a glass slide. After 30 seconds, 500 μl of a 1% Congo Red solution in PBS buffer (pH 7.4) was added around and on top of each of the gel aliquots and then the excess Congo Red solution was wiped off prior to examination.
ST14 and T14 were plated at varying concentrations of 0.5%, 1.0%, 1.5%, 2.0%, 2.5% and 5.0%. Visualization of gel formation determined the success or failure of gelation at each concentration.

[8] = Effect of DMEM treatment on rheological properties (storage modulus); assay type: physicochemical; details: 1% peptide; DMEM (pH 7.4) for 2 minutes; 1 Pa, 10 rad/s; 37° C.
Method: The effects of Dulbecco's modified Eagle's medium (DMEM) (pH 7.4) on the rheological properties of ST14 were evaluated on a rheometer (AR500, TA Instruments) with 40 mm plates. DMEM is a cell culture medium that contains 6.4 g/L of NaCl, 3.4 g/L NaHCO3 (sodium bicarbonate), minor amounts of other salts, various amino acids, and 4.5 g/L of glucose. The pH of DMEM is 7.2±0.2 and the osmolality is 335±30 mOsm/Kg H2O; both measurements are close to human physiological fluids such as blood. Peptide solutions (1%) were kept in 4° C. for at least 48 hours before testing. To perform the experiment, 1 mL of peptide solution was gently pipetted and placed on the plate of the rheometer. 2 mL of DMEM solution was gently added around the peptide solution. The peptide solution was treated with DMEM for two minutes, then the media was removed, and the plates were placed at a measuring geometry gap at around 450 μm. Measurements were performed at 37° C. after 2 min of relaxation time. Frequency tests were performed from 1 rad/s to 100 rad/s at 1 Pa of oscillation stress.
The rheological properties of ST14 (1%) were compared before and after DMEM treatment for 2 minutes in FIG. 14. […]

[9] = concentration 0.5% in deionized water
[10] = concentration 1.0% in deionized water
[11] = concentration 1.5% in deionized water
[12] = concentration 2.0% in deionized water
[13] = concentration 2.5% in deionized water

Structure (SMILES): CC(O)C(NC(=O)C(CO)NC(=O)C(NC(=O)C(CO)NC(=O)C(NC(=O)C(CO)NC(=O)C(NC(=O)C(CO)NC(=O)C(NC(=O)C(CO)NC(=O)C(NC(=O)C(CO)NC(=O)C(NC(=O)C(N)CO)C(C)O)C(C)O)C(C)O)C(C)O)C(C)O)C(C)O)C(=O)O (stereo not drawn) [ST14] (H-STSTSTSTSTSTST-OH; configuration not given here)
AFM morphology (nano structure) [1]: forms self-assembled nanofibers
Loss Modulus (G′) ([2]; Concentration 1): 11.4 Pa
Storage Modulus (G′) ([2]; Concentration 1): 67 Pa
Max. Viscosity (max η′) ([2]; Concentration 1): 1.2 Pa-s
Yield Stress ([2]; Concentration 1): 5.0 Pa
Loss Modulus (G′) ([2]; Concentration 1.5): 9.8 Pa
Storage Modulus (G′) ([2]; Concentration 1.5): 94 Pa
Max. Viscosity (max η′) ([2]; Concentration 1.5): 1.5 Pa-s
Yield Stress ([2]; Concentration 1.5): 7.9 Pa
Loss Modulus (G′) ([2]; Concentration 2): 17.3 Pa
Storage Modulus (G′) ([2]; Concentration 2): 136 Pa
Max. Viscosity (max η′) ([2]; Concentration 2): 2.0 Pa-s
Yield Stress ([2]; Concentration 2): 10.0 Pa
Loss Modulus (G′) ([2]; Concentration 2.5): 17.1 Pa
Storage Modulus (G′) ([2]; Concentration 2.5): 167 Pa
Max. Viscosity (max η′) ([2]; Concentration 2.5): 2.2 Pa-s
Yield Stress ([2]; Concentration 2.5): 15.9 Pa
storage modulus, yield stress, and max. viscosity versus concentration ([2]; concentrations 1 to 2.5): increased with increasing concentration
pH [3, 9]: 2.5
pH [3, 10]: 2.2
pH [3, 11]: 2.1
pH [3, 12]: 2.0
pH [3, 13]: 1.9
cell viability [4]: significantly decreased
degradation during autoclave treatment (mass spec) [5]: did not degrade
appearance of solution in deionized water ([6]; 1 percent w/v to 5 percent w/v): translucent
thickness of solution in deionized water ([6]; 1 percent w/v to 5 percent w/v): formed thick solutions
gel formation (Congo Red) ([7]; 0.5%): did not form a gel
fold increase of storage moduli after DMEM treatment [8]: 6.9 fold

AFM morphology (nano structure) [1]: Aggregates have been detected
pH [3, 9]: 2.5
pH [3, 10]: 2.3
pH [3, 11]: 2.2
pH [3, 12]: 2.1
pH [3, 13]: 2.0
degradation during autoclave treatment (mass spec) [5]: did not degrade
appearance of solution in deionized water ([6]; 1 percent w/v to 5 percent w/v): translucent
thickness of solution in deionized water ([6]; 5 percent w/v): formed a thick solution
gel formation (Congo Red) ([7]; below 1%): did not form a gel
Structure (SMILES): CC(O)C(N)C(=O)NC(C(=O)NC(C(=O)NC(C(=O)NC(C(=O)NC(C(=O)NC(C(=O)NC(C(=O)NC(C(=O)NC(C(=O)NC(C(=O)NC(C(=O)NC(C(=O)NC(C(=O)O)C(C)O)C(C)O)C(C)O)C(C)O)C(C)O)C(C)O)C(C)O)C(C)O)C(C)O)C(C)O)C(C)O)C(C)O)C(C)O (stereo not drawn) [Peptide T14]

— US10961274B2, “Self-assembling peptides comprising non-ionic polar amino acids for anti-adhesion” (3-D Matrix, Ltd., priority 2015, dated 2021)
